Source: ChEMBL document CHEMBL1201862, “PubChem BioAssay data set” (2004)
Activity calls are given as the source filed them.

Tests used:
[1] = molecular target: Serine/threonine-protein kinase TAO1 (Homo sapiens, UniProt Q7L7X3); assay type: functional
[2] = molecular target: STE20-like serine/threonine-protein kinase (Homo sapiens, UniProt Q9H2G2); assay type: functional
Ephrin type-A receptor 2 = Ephrin type-A receptor 2 (Homo sapiens, UniProt P29317); assay type: functional;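 further: EPHA2 tested as one member of a kinome-wide kinase panel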
[3] = molecular target: Proto-oncogene tyrosine-protein kinase receptor Ret (Homo sapiens, UniProt P07949); assay type: functional;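 further: measured within a kinome-wide profiling panel, RET as the panel member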
Exodeoxyribonuclease V = molecular target: T1, Exodeoxyribonuclease V (Escherichia coli (strain K12), UniProt P04993+P07648+P08394); assay: E. coli RecBCD inhibitors, dose response, counter-screen for AddAB inhibitor project, absorbance, V66 E. coli, mutant T4 phage (AID 492957); assay type: functional, cell-based, Escherichia coli str. K-12 substr. MG1655
T1 sequence (P04993 whole entry): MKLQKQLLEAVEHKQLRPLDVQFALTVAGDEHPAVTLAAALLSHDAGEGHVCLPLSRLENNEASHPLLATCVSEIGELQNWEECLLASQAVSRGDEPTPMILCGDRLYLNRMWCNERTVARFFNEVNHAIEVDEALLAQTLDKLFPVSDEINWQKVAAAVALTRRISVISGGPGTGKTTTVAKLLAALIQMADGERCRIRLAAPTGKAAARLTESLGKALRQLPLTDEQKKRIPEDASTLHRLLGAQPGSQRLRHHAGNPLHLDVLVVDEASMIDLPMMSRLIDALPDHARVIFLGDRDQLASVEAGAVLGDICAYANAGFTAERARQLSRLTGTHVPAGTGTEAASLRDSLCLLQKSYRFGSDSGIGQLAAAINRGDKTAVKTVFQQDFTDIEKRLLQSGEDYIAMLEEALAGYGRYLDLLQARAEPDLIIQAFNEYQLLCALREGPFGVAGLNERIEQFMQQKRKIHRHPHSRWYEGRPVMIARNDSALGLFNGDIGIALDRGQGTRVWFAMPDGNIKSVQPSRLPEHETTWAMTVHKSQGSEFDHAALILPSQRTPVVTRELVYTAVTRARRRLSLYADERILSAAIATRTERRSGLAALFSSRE
T1 sequence (P07648 whole entry): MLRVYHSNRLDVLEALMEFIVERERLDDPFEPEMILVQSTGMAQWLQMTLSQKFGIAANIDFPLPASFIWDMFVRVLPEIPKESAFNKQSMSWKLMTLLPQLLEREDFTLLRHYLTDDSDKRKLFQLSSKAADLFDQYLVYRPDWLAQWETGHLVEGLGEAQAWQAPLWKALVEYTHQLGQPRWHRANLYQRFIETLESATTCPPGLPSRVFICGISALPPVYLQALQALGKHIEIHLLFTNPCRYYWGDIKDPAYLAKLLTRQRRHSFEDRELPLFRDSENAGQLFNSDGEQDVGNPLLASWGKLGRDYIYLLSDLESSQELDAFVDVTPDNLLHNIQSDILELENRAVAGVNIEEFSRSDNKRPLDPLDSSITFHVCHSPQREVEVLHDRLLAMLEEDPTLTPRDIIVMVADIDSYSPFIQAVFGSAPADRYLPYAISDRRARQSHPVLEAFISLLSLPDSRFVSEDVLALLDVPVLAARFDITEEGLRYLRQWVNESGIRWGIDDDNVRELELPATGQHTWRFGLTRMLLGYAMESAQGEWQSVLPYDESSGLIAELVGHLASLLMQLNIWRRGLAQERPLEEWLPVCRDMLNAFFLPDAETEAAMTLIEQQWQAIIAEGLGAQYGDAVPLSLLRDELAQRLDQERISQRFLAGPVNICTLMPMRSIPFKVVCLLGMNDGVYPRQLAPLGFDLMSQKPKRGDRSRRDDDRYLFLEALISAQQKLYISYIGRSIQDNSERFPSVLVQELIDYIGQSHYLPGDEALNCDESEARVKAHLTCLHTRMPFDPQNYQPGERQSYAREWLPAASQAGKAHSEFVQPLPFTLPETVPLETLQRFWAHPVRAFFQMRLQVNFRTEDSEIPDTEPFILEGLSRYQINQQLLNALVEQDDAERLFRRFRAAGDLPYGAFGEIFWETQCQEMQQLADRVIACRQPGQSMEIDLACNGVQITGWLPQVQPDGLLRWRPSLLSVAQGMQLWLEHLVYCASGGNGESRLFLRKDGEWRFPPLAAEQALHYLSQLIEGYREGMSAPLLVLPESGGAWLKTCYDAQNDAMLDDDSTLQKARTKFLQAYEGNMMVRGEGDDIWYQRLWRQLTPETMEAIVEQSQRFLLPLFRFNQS
T1 sequence (P08394 whole entry): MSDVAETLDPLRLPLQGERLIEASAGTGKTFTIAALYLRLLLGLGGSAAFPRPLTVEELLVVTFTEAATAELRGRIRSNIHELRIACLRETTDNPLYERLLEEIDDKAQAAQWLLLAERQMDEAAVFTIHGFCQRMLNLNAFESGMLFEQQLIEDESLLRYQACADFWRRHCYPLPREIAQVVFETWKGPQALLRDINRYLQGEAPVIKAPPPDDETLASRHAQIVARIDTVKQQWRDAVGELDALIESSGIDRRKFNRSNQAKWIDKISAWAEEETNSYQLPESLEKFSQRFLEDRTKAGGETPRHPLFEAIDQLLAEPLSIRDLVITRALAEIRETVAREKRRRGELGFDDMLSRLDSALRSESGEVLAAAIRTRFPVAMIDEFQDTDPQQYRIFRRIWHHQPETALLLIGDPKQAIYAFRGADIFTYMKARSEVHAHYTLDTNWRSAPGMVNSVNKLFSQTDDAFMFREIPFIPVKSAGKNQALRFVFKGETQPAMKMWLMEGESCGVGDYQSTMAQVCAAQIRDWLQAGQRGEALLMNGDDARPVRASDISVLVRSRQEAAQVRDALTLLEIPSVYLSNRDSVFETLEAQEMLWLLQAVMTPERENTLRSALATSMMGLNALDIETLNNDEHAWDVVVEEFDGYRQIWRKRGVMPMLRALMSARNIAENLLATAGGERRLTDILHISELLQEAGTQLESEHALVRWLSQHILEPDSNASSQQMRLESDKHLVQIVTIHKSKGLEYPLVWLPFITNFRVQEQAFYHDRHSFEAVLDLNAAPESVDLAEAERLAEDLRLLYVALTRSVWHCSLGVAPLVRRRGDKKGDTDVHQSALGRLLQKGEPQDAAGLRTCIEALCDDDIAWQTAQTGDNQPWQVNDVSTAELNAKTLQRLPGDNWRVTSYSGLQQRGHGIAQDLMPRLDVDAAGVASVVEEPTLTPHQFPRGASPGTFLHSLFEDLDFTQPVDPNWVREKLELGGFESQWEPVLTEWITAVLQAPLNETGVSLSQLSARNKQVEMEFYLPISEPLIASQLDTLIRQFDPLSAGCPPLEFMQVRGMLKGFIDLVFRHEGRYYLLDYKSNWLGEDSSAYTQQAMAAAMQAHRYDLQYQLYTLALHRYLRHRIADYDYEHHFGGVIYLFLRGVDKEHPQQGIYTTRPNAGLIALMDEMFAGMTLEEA

Sequence of Ephrin type-A receptor 2 (P29317 whole entry): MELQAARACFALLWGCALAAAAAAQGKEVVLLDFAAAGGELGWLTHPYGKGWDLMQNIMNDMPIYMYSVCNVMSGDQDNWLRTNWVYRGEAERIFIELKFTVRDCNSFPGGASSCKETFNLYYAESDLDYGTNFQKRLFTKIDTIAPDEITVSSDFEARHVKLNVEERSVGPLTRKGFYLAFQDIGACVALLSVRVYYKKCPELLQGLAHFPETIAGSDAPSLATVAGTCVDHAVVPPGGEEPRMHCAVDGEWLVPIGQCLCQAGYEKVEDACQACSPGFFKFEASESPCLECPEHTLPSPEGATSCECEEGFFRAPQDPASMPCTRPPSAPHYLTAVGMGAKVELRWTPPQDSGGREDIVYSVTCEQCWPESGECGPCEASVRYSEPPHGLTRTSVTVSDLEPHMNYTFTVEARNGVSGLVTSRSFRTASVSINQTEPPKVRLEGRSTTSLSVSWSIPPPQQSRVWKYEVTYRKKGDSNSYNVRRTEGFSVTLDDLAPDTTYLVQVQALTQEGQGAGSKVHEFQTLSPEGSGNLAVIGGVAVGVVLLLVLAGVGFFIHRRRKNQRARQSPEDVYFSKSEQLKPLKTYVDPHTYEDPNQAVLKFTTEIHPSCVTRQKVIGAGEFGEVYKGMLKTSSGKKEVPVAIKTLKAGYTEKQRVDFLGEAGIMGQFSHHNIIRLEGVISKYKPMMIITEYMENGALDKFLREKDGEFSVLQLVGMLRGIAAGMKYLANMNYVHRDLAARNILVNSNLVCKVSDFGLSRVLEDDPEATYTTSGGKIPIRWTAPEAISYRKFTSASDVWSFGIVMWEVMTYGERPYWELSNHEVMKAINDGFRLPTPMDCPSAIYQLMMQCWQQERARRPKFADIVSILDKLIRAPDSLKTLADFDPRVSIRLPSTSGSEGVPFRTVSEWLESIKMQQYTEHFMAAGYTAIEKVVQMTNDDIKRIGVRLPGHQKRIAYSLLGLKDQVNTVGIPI
Sequence of Proto-oncogene tyrosine-protein kinase receptor Ret (P07949 whole entry): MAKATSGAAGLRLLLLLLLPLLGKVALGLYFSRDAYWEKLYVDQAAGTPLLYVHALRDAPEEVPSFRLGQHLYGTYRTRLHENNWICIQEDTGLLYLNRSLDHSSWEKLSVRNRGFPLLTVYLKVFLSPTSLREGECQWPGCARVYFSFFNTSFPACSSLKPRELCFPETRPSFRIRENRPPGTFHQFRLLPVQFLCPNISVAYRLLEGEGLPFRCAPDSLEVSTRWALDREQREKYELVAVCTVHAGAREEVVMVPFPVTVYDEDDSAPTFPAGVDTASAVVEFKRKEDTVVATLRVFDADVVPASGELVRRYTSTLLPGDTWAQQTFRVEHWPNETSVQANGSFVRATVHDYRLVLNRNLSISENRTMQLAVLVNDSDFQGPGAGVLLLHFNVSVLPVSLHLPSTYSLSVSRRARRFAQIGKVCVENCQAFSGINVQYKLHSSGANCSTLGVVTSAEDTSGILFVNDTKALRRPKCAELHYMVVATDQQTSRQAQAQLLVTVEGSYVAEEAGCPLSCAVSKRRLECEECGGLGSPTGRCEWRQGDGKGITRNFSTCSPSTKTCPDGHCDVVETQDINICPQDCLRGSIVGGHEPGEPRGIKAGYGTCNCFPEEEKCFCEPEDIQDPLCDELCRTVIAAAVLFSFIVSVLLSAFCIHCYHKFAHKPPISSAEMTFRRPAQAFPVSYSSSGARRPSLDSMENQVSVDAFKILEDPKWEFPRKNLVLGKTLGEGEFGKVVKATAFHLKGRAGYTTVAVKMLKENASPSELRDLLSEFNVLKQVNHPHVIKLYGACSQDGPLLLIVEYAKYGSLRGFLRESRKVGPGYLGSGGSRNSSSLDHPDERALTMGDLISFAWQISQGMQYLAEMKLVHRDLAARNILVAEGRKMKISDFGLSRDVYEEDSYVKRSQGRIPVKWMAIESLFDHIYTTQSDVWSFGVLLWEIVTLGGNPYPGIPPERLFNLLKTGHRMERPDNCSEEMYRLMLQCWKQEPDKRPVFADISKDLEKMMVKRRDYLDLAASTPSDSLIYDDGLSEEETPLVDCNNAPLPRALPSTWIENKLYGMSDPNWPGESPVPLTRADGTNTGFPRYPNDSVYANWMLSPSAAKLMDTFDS
Sequence of STE20-like serine/threonine-protein kinase (Q9H2G2 whole entry): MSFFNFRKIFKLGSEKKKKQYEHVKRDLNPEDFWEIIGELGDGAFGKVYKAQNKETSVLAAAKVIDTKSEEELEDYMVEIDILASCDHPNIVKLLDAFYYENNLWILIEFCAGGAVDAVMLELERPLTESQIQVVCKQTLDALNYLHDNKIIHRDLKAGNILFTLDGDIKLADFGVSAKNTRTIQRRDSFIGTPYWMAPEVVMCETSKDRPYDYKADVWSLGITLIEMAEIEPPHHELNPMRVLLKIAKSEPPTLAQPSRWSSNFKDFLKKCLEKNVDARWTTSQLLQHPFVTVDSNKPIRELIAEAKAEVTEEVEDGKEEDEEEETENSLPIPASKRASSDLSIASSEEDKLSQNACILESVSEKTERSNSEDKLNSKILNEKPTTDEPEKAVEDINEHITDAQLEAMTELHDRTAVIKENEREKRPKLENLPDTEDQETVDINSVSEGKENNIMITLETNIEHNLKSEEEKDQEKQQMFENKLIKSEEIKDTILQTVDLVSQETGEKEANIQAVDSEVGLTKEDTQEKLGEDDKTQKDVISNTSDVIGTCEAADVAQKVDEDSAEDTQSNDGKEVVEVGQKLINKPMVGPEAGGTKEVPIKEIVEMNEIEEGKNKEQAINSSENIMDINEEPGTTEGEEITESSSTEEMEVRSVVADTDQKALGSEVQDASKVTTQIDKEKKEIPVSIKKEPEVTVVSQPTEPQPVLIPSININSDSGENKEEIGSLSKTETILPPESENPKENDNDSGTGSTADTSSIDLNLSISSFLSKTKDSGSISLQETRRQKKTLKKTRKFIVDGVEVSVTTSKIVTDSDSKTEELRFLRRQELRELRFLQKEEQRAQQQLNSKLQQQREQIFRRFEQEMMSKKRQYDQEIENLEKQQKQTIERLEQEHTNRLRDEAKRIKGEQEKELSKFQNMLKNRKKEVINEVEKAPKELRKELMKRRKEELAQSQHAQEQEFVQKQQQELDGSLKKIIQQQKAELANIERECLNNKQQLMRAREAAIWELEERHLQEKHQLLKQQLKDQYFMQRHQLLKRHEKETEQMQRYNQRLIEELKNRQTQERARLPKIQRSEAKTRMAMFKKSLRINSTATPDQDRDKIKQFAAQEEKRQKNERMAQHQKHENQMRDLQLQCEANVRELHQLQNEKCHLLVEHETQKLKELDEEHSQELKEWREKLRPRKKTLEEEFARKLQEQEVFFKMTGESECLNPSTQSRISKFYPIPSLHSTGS
Sequence of Serine/threonine-protein kinase TAO1 (Q7L7X3 whole entry): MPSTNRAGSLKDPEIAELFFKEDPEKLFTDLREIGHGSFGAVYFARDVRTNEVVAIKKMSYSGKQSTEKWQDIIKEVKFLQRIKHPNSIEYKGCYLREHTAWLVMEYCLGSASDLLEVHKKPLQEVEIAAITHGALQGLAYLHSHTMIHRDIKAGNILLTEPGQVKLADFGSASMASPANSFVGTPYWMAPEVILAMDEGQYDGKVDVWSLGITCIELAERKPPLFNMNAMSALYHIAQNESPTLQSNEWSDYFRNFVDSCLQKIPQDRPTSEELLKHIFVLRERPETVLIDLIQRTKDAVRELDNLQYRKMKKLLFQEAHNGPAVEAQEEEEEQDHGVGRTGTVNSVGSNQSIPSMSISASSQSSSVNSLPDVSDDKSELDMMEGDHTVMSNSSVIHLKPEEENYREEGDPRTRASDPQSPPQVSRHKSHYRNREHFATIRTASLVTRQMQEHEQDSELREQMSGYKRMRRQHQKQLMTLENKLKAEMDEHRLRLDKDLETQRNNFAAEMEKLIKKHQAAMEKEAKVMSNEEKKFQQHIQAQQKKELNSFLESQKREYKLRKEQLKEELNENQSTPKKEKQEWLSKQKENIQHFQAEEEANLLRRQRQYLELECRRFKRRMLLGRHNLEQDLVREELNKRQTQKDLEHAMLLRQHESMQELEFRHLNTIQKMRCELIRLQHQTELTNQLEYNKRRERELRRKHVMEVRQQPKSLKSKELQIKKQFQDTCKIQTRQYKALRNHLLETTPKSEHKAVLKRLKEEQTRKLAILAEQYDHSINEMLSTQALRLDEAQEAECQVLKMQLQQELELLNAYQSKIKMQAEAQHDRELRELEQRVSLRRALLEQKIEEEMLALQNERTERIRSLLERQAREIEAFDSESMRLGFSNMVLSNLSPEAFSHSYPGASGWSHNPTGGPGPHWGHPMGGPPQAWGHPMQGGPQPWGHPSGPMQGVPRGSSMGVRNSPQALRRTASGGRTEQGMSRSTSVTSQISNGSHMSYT

| Structure (SMILES) | Ki [1] | Ki [2] | Ki (Ephrin type-A receptor 2) | Ki [3] | IC50 (Exodeoxyribonuclease V) |
| --- | --- | --- | --- | --- | --- |
| CCn1c(-c2nonc2N)nc2cnc(Oc3cccc(NC(=O)c4ccc(OCCN5CCOCC5)cc4)c3)cc21 [GSK-269962A] | > 10 µM (inactive) | 1.58 µM (active) | > 3.16 µM (inactive) | > 1.26 µM (inactive) |  |
| COc1ccc(-c2nnc(NC(=O)c3ccc(F)cc3)o2)cc1 |  |  |  |  | > 118 µM (inactive) |
